Data taken from patent US20240018158A1, “BRM TARGETING COMPOUNDS AND ASSOCIATED METHODS OF USE” (Prelude Therapeutics Incorporated, priority 2020, published 2024).

Target: SMARCA2 (Homo sapiens (Human), UniProt P51531)
Experiment: SMARCA2 HiBiT degradation assay in HEK293T cells
Assay type: cell-based
Conditions: 293T HiBiT assay, 24 h; for DC50: read-out: DC50 (SM2-293T) SMARCA2 degradation potency; for Dmax: HEK-293T, read-out: Dmax % (SM2-293T) maximum SMARCA2 degradation within the concentrations tested
Method: HiBiT peptide knock-in of SMARCA2 in LgBiT expressing HEK293T cells was performed by CRISPR-mediated tagging system as described Promega. The homozygous HiBiT knock-in on c-terminus SMARCA2 was confirmed by sanger sequence. SMARCA2-HiBiT knock-in Hela monoclonal cell (CS302366) and SMARCA4-HiBiT knock-in Hela monoclonal cell (CS3023226) were purchased from Promega. The heterozygous HiBiT-knock-in was confirmed by sanger sequence in both SMARCA2-HiBiT and SMARCA4-HiBiT monoclonal cells. Compounds were prepared in a low dead volume plate at 3-fold serial dilution, and then transferred 25 nL/well into a 384 well plate (Corning: #356661) by Agilent Bravo liquid dispenser. SMARCA2-HiBiT monoclonal HEK293T cells were added at 5,000/well/25 uL into the compound containing 384 well plate. After 24 h incubation, 25 uL/well of Nano-Glo HiBiT Lytic detection buffer (Promega: N3050) was added to the wells and incubate for 10 min on a shaker, centrifuged for 5 min, and then RLU was detected on a microplate reader (Envision, PerkinElmer). The RLU ratio values are normalized to percent inhibition as follows: % inhibition=((HC−LC)−(compound−LC))/(HC−LC))*100, where HC=high control=mean signal of DMSO only; LC=low control=mean signal of 100% inhibition of RLU by 1 μM PRT1001728. An 11-point dose response curve for each compound will be generated using normalized % inhibition to determine IC50 values based on the equation: Y=Bottom+((Top-Bottom)/(1+((IC50/X)^Slope))), where Y is the % inhibition in the presence of X inhibitor concentration; Top=the top plateau of the curve; Bottom=the bottom plateau of the curve; Slope=Hill coefficient; DC50=concentration of compound with 50% degradation in relation to top/high control. DC50 values were determined by using XLfit Model 205.

Sequence of SMARCA2 (P51531 whole entry): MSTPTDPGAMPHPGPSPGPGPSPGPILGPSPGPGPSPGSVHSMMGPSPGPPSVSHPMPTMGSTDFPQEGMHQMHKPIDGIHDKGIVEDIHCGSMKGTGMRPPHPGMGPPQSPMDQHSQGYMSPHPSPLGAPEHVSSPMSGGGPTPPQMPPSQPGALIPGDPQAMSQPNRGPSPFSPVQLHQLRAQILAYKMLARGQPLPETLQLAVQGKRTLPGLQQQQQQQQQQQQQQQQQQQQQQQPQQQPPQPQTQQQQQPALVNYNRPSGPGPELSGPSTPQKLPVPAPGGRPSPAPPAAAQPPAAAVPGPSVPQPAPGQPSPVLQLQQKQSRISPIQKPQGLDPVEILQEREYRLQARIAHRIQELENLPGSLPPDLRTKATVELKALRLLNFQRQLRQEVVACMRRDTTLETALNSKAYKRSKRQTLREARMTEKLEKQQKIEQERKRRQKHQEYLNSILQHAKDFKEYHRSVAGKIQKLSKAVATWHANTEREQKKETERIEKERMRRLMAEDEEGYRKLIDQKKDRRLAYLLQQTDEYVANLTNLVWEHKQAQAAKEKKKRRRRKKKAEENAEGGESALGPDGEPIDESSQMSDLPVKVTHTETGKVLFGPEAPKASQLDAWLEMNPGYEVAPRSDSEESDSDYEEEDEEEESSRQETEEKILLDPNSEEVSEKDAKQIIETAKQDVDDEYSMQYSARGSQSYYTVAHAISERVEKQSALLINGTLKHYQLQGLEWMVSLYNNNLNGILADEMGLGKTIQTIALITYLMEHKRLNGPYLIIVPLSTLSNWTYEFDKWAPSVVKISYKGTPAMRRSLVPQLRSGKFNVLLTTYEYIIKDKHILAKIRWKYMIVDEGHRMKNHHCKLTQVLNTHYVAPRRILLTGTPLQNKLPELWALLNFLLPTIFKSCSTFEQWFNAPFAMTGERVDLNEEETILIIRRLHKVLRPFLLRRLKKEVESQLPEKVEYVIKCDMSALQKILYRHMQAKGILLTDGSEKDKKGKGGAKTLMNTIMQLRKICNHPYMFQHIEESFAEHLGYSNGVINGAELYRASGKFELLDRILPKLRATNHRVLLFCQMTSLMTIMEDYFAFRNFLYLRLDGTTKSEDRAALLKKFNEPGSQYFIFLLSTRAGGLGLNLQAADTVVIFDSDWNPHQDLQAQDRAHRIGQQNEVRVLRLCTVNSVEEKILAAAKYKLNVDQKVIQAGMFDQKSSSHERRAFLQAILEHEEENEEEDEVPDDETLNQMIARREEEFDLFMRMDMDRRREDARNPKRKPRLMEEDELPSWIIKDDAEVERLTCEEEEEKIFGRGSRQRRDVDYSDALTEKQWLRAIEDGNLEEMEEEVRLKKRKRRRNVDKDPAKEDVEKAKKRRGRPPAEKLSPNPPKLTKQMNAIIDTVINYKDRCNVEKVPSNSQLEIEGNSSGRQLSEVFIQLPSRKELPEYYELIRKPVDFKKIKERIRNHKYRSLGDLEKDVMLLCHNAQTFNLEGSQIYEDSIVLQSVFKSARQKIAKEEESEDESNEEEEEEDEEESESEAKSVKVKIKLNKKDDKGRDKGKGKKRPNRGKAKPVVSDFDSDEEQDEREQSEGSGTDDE

Row | SMILES | DC50 [nM] | Dmax [%]
1 | Cc1ncsc1-c1ccc([C@H](C)NC(=O)[C@@H]2C[C@@H](O)CN2C(=O)[C@@H](c2cc(OCCN3CCC(N4CCN5c6cc(-c7ccccc7O)nnc6NC[C@H]5C4)C(F)C3)no2)C(C)C)cc1 (stereo partly drawn) [Example 14, (2S,4R)-1-((2R)-2-(3-(2-(3-fluoro-4-((S)-2-(2-hydroxyphenyl)-5,6,6a,7,9,10-hexahydro-8H-pyrazino[1′,2′:4,5]pyrazino[2,3-c]pyridazin-8-yl)piperidin-1-yl)ethoxy)isoxazol-5-yl)-3-methylbutanoyl)-4-hydroxy-N-((S)-1-(4-(4-methylthiazol-5-yl)phenyl)ethyl)pyrrolidine-2-carboxamide] | < 100 | > 75
2 | Cc1ncsc1-c1ccc([C@H](C)NC(=O)[C@@H]2C[C@@H](O)CN2C(=O)C(c2cc(CN3CCC(CN4CCN5c6cc(-c7ccccc7O)nnc6NC[C@H]5C4)CC3)no2)C(C)C)cc1 (stereo partly drawn) [Example 32, (2S,4R)-4-hydroxy-1-(2-(3-((4-(((S)-2-(2-hydroxyphenyl)-5,6,6a,7,9,10-hexahydro-8H-pyrazino[1′,2′:4,5]pyrazino[2,3-c]pyridazin-8-yl)methyl)piperidin-1-yl)methyl)isoxazol-5-yl)-3-methylbutanoyl)N-((S)-1-(4-(4-methylthiazol-5-yl)phenyl)ethyl)pyrrolidine-2-carboxamide] | < 100 | > 75
3 | Cc1ncsc1-c1ccc([C@H](C)NC(=O)[C@@H]2C[C@@H](O)CN2C(=O)[C@@H](c2cc(OCCN3CCC(N4CCN5c6cc(-c7ccccc7O)nnc6NC[C@H]5C4)C(C)C3)no2)C(C)C)cc1 (single isomer, unassigned) [Example 56] | < 100 | > 75
4 | Cc1nccn1-c1ccc([C@H](C)NC(=O)[C@@H]2C[C@@H](O)CN2C(=O)[C@@H](c2cc(OCCN3CCC(CN4CCN5c6cc(-c7ccccc7O)nnc6NC[C@H]5C4)CC3)no2)C(C)C)cc1 [Example 37, (2S,4R)-4-hydroxy-1-((R)-2-(3-(2-(4-(((S)-2-(2-hydroxyphenyl)-5,6,6a,7,9,10-hexahydro-8H-pyrazino[1′,2′:4,5]pyrazino[2,3-c]pyridazin-8-yl)methyl)piperidin-1-yl)ethoxy)isoxazol-5-yl)-3-methylbutanoyl)-N-((S)-1-(4-(2-methyl-1H-imidazol-1-yl)phenyl)ethyl)pyrrolidine-2-carboxamide] | < 100 | > 75
5 | Cc1ncsc1-c1ccc([C@H](C)NC(=O)[C@@H]2C[C@@H](O)CN2C(=O)[C@@H](c2cc(OCCN3CCC(CN4CCN5c6cc(-c7ccccc7O)nnc6NC[C@H]5C4)CC3)no2)C(C)C)c(F)c1 [Example 36, (2S,4R)-N-((S)-1-(2-fluoro-4-(4-methylthiazol-5-yl)phenyl)ethyl)-4-hydroxy-1-((R)-2-(3-(2-(4-(((S)-2-(2-hydroxyphenyl)-5,6,6a,7,9,10-hexahydro-8H-pyrazino[1′,2′:4,5]pyrazino[2,3-c]pyridazin-8-yl)methyl)piperidin-1-yl)ethoxy)isoxazol-5-yl)-3-methylbutanoyl)pyrrolidine-2-carboxamide] | < 100 | > 75
6 | Cc1ncsc1-c1ccc([C@H](C)NC(=O)[C@@H]2C[C@@H](O)CN2C(=O)[C@@H](NC(=O)COCCN2CCN3c4cc(-c5ccccc5O)nnc4NCC3C2)C(C)(C)C)cc1 (stereo partly drawn) [Example 65, (2S,4R)-4-hydroxy-1-((2S)-2-(2-(2-(2-(2-hydroxyphenyl)-5,6,6a,7,9,10-hexahydro-8H-pyrazino[1′,2′:4,5]pyrazino[2,3-c]pyridazin-8-yl)ethoxy)acetamido)-3,3-dimethylbutanoyl)-N-((S)-1-(4-(4-methylthiazol-5-yl)phenyl)ethyl)pyrrolidine-2-carboxamide] | 100 to 1000 | > 75
7 | Cc1ncsc1-c1ccc([C@H](C)NC(=O)[C@@H]2C[C@@H](O)CN2C(=O)[C@@H](NC(=O)OCCN2CCC(N3CCN4c5cc(-c6ccccc6O)nnc5NC[C@H]4C3)CC2)C(C)(C)C)cc1 [Example 80, 2-(4-((S)-2-(2-hydroxyphenyl)-5,6,6a,7,9,10-hexahydro-8H-pyrazino[1′,2′:4,5]pyrazino[2,3-c]pyridazin-8-yl)piperidin-1-yl)ethyl ((S)-1-((2S,4R)-4-hydroxy-2-(((S)-1-(4-(4-methylthiazol-5-yl)phenyl)ethyl)carbamoyl)pyrrolidin-1-yl)-3,3-dimethyl-1-oxobutan-2-yl)carbamate] | < 100 | > 75
8 | Cc1ncsc1-c1ccc([C@H](C)NC(=O)[C@@H]2C[C@@H](O)CN2C(=O)[C@@H](c2cc(OCCN3CCC(N4CCN5c6cc(-c7ccccc7O)nnc6NC[C@H]5C4)C3)no2)C(C)C)cc1 (single isomer, unassigned) [Example 18] | < 100 | –
9 | Cc1ncsc1-c1ccc([C@H](C)NC(=O)[C@@H]2C[C@@H](O)CN2C(=O)[C@@H](c2cc(OC(C)CN3CCCC(CN4CCN5c6cc(-c7ccccc7O)nnc6NC[C@H]5C4)C3)no2)C(C)C)cc1 (stereo partly drawn) [Example 23, (2S,4R)-4-hydroxy-1-((2R)-2-(3-((1-(3-(((S)-2-(2-hydroxyphenyl)-5,6,6a,7,9,10-hexahydro-8H-pyrazino[1′,2′:4,5]pyrazino[2,3-c]pyridazin-8-yl)methyl)piperidin-1-yl)propan-2-yl)oxy)isoxazol-5-yl)-3-methylbutanoyl)-N-((S)-1-(4-(4-methylthiazol-5-yl)phenyl)ethyl)pyrrolidine-2-carboxamide] | < 100 | > 75
10 | Cc1ncsc1-c1ccc([C@H](C)NC(=O)[C@@H]2C[C@@H](O)CN2C(=O)[C@@H](c2cc(OCCN3CCC(CN4CCN5c6cc(-c7ccccc7O)nnc6NC[C@H]5C4)C(C)(C)C3)no2)C(C)C)cc1 (stereo partly drawn) [Example 87, (2S,4R)-4-hydroxy-1-((2R)-2-(3-(2-(4-(((S)-2-(2-hydroxyphenyl)-5,6,6a,7,9,10-hexahydro-8H-pyrazino[1′,2′:4,5]pyrazino[2,3-c]pyridazin-8-yl)methyl)-3,3-dimethylpiperidin-1-yl)ethoxy)isoxazol-5-yl)-3-methylbutanoyl)-N-((S)-1-(4-(4-methylthiazol-5-yl)phenyl)ethyl)pyrrolidine-2-carboxamide] | < 100 | > 75
11 | Cc1ncsc1-c1ccc([C@H](C)NC(=O)[C@@H]2C[C@@H](O)CN2C(=O)[C@@H](c2cc(OCCN3CCN(CCN4CCC(N5CCN6c7cc(-c8ccccc8O)nnc7NC[C@H]6C5)CC4)CC3)no2)C(C)C)cc1 [Example 21, (2S,4R)-4-hydroxy-1-((R)-2-(3-(2-(4-(2-(4-((S)-2-(2-hydroxyphenyl)-5,6,6a,7,9,10-hexahydro-8H-pyrazino[1′,2′:4,5]pyrazino[2,3-c]pyridazin-8-yl)piperidin-1-yl)ethyl)piperazin-1-yl)ethoxy)isoxazol-5-yl)-3-methylbutanoyl)-N-((S)-1-(4-(4-methylthiazol-5-yl)phenyl)ethyl)pyrrolidine-2-carboxamide] | < 100 | > 75
12 | Cc1ncsc1-c1ccc([C@H](C)NC(=O)[C@@H]2C[C@@H](OC(=O)C(C)C)CN2C(=O)[C@@H](c2cc(OCCN3CCC(N4CCN5c6cc(-c7ccccc7O)nnc6NC[C@H]5C4)CC3)no2)C(C)C)cc1 [Example 81, (3R,5S)-1-((R)-2-(3-(2-(4-((S)-2-(2-hydroxyphenyl)-5,6,6a,7,9,10-hexahydro-8H-pyrazino[1′,2′:4,5]pyrazino[2,3-c]pyridazin-8-yl)piperidin-1-yl)ethoxy)isoxazol-5-yl)-3-methylbutanoyl)-5-(((S)-1-(4-(4-methylthiazol-5-yl)phenyl)ethyl)carbamoyl)pyrrolidin-3-yl isobutyrate] | < 100 | > 75
